Test results published in US7537786B2, “Complex of drug-carbon nanohorn and a process for producing the complex” (NEC Corporation, priority 2005, dated 2009).

Legend:
[1] = system: NCI-H460 cells; test: WST-1 assay for cancer cell viability; assay type: cell-based, human; details: WST-1, incubation 46 and 72 hours
Protocol: The effect of CDDP released from CNHox was examined using the WST-1 assay. The CDDP-CNHox powder was added to human derived lung cancer cells NCI-H460. CDDP is a drug which has a effect on human lung cancer. These cells were maintained in RPMI-1640 medium containing 5% FBS at 37° C. in a humidified atmosphere with CO2 and air. For these cells, CDDP-CNHox or CDDP or CNHox was added respectively, and after the addition, each sample was examined. NCI-H460 cells were seeded at 4,000 cells/well and were cultured for 43 hours. Meanwhile, the cells were cultured for 67 hours when seeded at 2,500 cells/well (no addition of CDDP-CNHox or CDDP). And then it was confirmed that the NCI-H460 cells were extinct by drug addition. The amount of the extinct NCI-H460 cells was estimated by observing the decrease in the emission intensity to indicate the absorbency of formazan (with blue dye) showing the living of cells. And also, the NCI-H460 cells were directly observed using the optical microscope.

[2] = system: MC3T3-E1 cells; test: ALP (alkaline phosphatase) activity assay; assay type: cell-based, mouse; details: MC3T3-E1, 10 days, differentiation-inducing medium with rhBMP-4
Protocol: Mouse osteoblastic cell (MC3T3-E1) lines were generously provided by Dr. Imamura (Cancer Institute, Japanese Foundation For Cancer Research). MC3T3-E1 cells were maintained in α-minimum essential medium (α-MEM) supplied with 5% FBS, […] in continuous culture at 37° C. in a humidified atmosphere of 5% CO2 and 95% air, and these cells were passaged every 3-4 days.
MC3T3-E1 cells were plated at 26,000 cells/cm^2 in 24 well plates and were grown until confluent. Next, the culture medium was exchanged with differentiation-inducing medium which consisted of α-MEM, 5% FBS, 100 U/ml penicillin, 100 μg/ml streptomycin, 50 μM ascorbic acid, 10 mM β-glycerophosphate and 20 ng/ml rhBMP-4. […]
For ALP activity assay, the medium was removed, and the cells were washed 3 times with TBS (20 mM Tris pH7.4, 150 mM NaCl), then harvested into 250 μl of TBS (contaning 0.2% Triton X-100) by scraping them on ice, and sonicated on ice for 5 min. […] The supernatant was mixed with p-nitro phosphate according to the manufacture's protocol, and the amount of p-nitrophenol released in 10 min was assessed by spectrophotometry (405 nm) with model 550 microplate-reader (Bio-Rad). Protein concentration of supernatant was assessed with protein quantitative assay kit (DC Protein Assay Kit) by the Lowry method. […]

| Compound | viability rate of NCI-H460 cells [1] | concentration at which ALP activity was increased [2] |
| --- | --- | --- |
| [NH2][Pt]([NH2])([Cl])[Cl] [CDDP, cisplatin] | decreased dose-dependently |  |
| C[C@@H]1C[C@H]2[C@@H]3CCC4=CC(=O)C=C[C@]4(C)[C@@]3(F)[C@@H](O)C[C@]2(C)[C@@]1(O)C(=O)CO [DEX, Dexamethasone] |  | no less than 0.05 μM |
